Measurements taken from patent publication US11439637B2, “Antiproliferative compounds and bispecific antibody against BCMA and CD3 for combined use” (Celgene Corporation, priority 2018, dated 2022).
Entries after “also recorded” stand apart in the source; their conditions may differ.

What was measured:
[1] = system: multiple myeloma H929 cell line; assay: Co-cultures of effector T cells and target cells with concurrent compound treatments; type: cell-based, human; conditions: concurrent exposure to Compound 2 (1 nM) for 72 hours, T-cells of three donors, E:T 1:3, vs DMSO
Method: CD3+ T-cells were isolated from peripheral blood mononuclear cell fractions from three different healthy donors (donors A, B and C) using magnetic-activated cell sorting. Cells were thawed in RPMI 1640 culture media supplemented with 10% (v/v) FBS, non-essential amino acids, sodium pyruvate and penicillin/streptomycin. All cell cultures and treatments were performed in a 37° C., 5% CO2 incubator for time periods as indicated. T-cells were then labeled with CFSE (carboxyfluorescein succinimidyl ester) according to the manufacturer's instructions, and allowed to recover overnight in the presence of 1 ng/mL human IL-7. The multiple myeloma H929 cell line was labeled with CellTrace™ Violet, and allowed to recover overnight. T-cells and target cells were then washed and co-cultured in the presence of increasing concentrations of bispecific antibody specifically binding to human B cell maturation antigen (BCMA) and to human CD3ε (CD3) provided herein, for 72 hours, at a fixed effector T-cell (E) to target cell (T) ratio of 1:3. Co-cultures in the presence of bispecific antibody were performed in the presence of DMSO (control) or Compound 2. Cells were collected at the end of co-culture for analysis of target cell apoptosis and necrosis by flow cytometry using APC Annexin V Apoptosis Detection Kit with 7-AAD.

[2] = system: multiple myeloma H929 cell line; assay: Co-cultures of effector T cells and target cells after pretreatment with compounds, bispecific antibody-induced target cell killing (H929); type: cell-based, human; conditions: H929 target cells pretreated with Compound 2 (1 nM) for 72 hours, washed; co-culture 72 hours, E:T 1:3; vs DMSO
Method: (§1) CD3+ T-cells were isolated from peripheral blood mononuclear cell fractions from healthy donors using magnetic-activated cell sorting. Cells were thawed in RPMI 1640 culture media supplemented with 10% (v/v) fetal bovine serum (FBS), non-essential amino acids and sodium pyruvate. All cell cultures and cell treatments were performed in a 37° C., 5% CO2 incubator for time periods as indicated. T-cells were then labeled with CFSE (carboxyfluorescein succinimidyl ester) according to the manufacturer's instructions, and allowed to recover overnight in the presence of 1 ng/mL human IL-7. T-cells were treated with DMSO (control) or Compound 2 as single agent for 16 hours before co-culture. The multiple myeloma H929 and OPM-2 cell lines or the plasma cell leukemia (PCL) cell line L363 were labeled with CellTrace™ Violet, then pretreated with DMSO (control) or Compound 2 as a single agent for 72 hours. T-cells and target cells were then washed to remove compounds and co-cultured in the presence of increasing concentrations of a bispecific antibody specifically binding to human B cell maturation antigen (BCMA) and to human CD3ε (CD3) as provided herein, for 72 hours, at different effector T-cell (E) to target cell (T) ratios. […]

[3] = system: lenalidomide-resistant multiple myeloma cell line H929-1051; assay: Co-cultures of effector T cells and lenalidomide-resistant multiple myeloma target cells after pretreatment with compounds; type: cell-based, human; conditions: H929-1051 target cells pretreated 72 hours with Compound 2 (1 nM) or pomalidomide (100 nM), washed; co-culture 72 hours, E:T 1:3; vs DMSO
Text: Co-cultures of effector T cells (E) and lenalidomide-resistant multiple myeloma target cells (T) after pretreatment with compounds. CD3+ T-cells were isolated from peripheral blood mononuclear cell fractions from three different healthy donors (donors D, E and F) using magnetic-activated cell sorting. Cells were thawed in RPMI 1640 culture media supplemented with 10% (v/v) fetal bovine serum (FBS), non-essential amino acids, sodium pyruvate and penicillin/streptomycin. All cell cultures and cell treatments were performed in a 37° C., 5% CO2 incubator for time periods as indicated. T-cells were then labeled with CFSE (carboxyfluorescein succinimidyl ester) according to the manufacturer's instructions, and allowed to recover overnight in the presence of 1 ng/mL human IL-7. The lenalidomide-resistant multiple myeloma cell line H929-1051 was generated by long-term culture in the presence of increasing concentrations of lenalidomide, as previously described (Ghandi et al. Br. J. Haematol. 2014 January; 164(2):233-44) using methods described (Lopez-Girona et al. Leukemia. 2012 November; 26(11):2326-35). H929-1051 cells were labeled with CellTrace™ Violet, then pretreated with DMSO (control), pomalidomide, or Compound 2 as a single agent for 72 hours. T-cells and target cells were then washed to remove compounds and co-cultured in the presence of increasing concentrations of the bispecific antibody specifically binding to human B cell maturation antigen (BCMA) and to human CD3ε (CD3) as provided herein, for 72 hours, at a fixed effector T-cell (E) to target cell (T) ratio of 1:3. The cells were collected at the end of co-culture for analysis of target cell apoptosis and necrosis by flow cytometry using APC Annexin V Apoptosis Detection Kit with 7-AAD, following the manufacturer's directions (BioLegend).

[4] = system: multiple myeloma OPM-2 cell line; assay: Co-cultures of effector T cells and target cells after pretreatment with compounds, cytotoxicity assays with OPM-2 cells; type: cell-based, human; conditions: E:T 1:5
Method: CD3+ T-cells were isolated from peripheral blood mononuclear cell fractions from healthy donors using magnetic-activated cell sorting. Cells were thawed in RPMI 1640 culture media supplemented with 10% (v/v) fetal bovine serum (FBS), non-essential amino acids and sodium pyruvate. All cell cultures and cell treatments were performed in a 37° C., 5% CO2 incubator for time periods as indicated. T-cells were then labeled with CFSE (carboxyfluorescein succinimidyl ester) according to the manufacturer's instructions, and allowed to recover overnight in the presence of 1 ng/mL human IL-7. T-cells were treated with DMSO (control) or Compound 2 as single agent for 16 hours before co-culture. The multiple myeloma H929 and OPM-2 cell lines or the plasma cell leukemia (PCL) cell line L363 were labeled with CellTrace™ Violet, then pretreated with DMSO (control) or Compound 2 as a single agent for 72 hours. T-cells and target cells were then washed to remove compounds and co-cultured in the presence of increasing concentrations of a bispecific antibody specifically binding to human B cell maturation antigen (BCMA) and to human CD3ε (CD3) as provided herein, for 72 hours, at different effector T-cell (E) to target cell (T) ratios. The cells were collected at the end of co-culture for analysis of target cell apoptosis and necrosis by flow cytometry using APC Annexin V Apoptosis Detection Kit with 7-AAD, following the manufacturer's directions (BioLegend).

[5] = system: plasma cell leukemia (PCL) cell line L363; assay: Co-cultures of effector T cells and target cells after pretreatment with compounds, bispecific antibody-induced target cell killing (L363); type: cell-based, human; conditions: L363 target cells pretreated with Compound 2 (1 nM) for 72 hours, washed; co-culture 72 hours, E:T 1:1; vs DMSO
Method: as §1

[6] = system: acute myeloid leukemia (AML); conditions: administered alone; cited from earlier work
[7] = combination of effector T-cell pretreatment and target cell pretreatment with Compound 2 (1 nM)
[8] = either effector T-cells (16 hours) or target cells (72 hours) alone pretreated with Compound 2 (1 nM)

| Compound | maximal efficacy of target cell killing mediated by the bispecific antibody [1] | potency of the bispecific antibody [1] | maximal target cell killing induced by the bispecific antibody [2] | potency of the bispecific antibody [2] | maximal target cell killing induced by the bispecific antibody [3] | potency of the bispecific antibody [3] | efficacy of the bispecific antibody [4, 7] | potentiation of the bispecific antibody [4, 7] | efficacy of target cell killing by the bispecific antibody [4, 8] | potency of target cell killing by the bispecific antibody [4, 8] | potency of the bispecific antibody [5] | response in treating acute myeloid leukemia (AML) at relapse [6] |
| --- | --- | --- | --- | --- | --- | --- | --- | --- | --- | --- | --- | --- |
| N#Cc1ccc(N2CCN(Cc3ccc(COc4cccc5c4CN([C@H]4CCC(=O)NC4=O)C5=O)cc3)CC2)c(F)c1 [Compound 2, (S)-4-(4-(4-(((2-(2,6-dioxopiperidin-3-yl)-1-oxoisoindolin-4-yl)oxy)methyl)benzyl)piperazin-1-yl)-3-fluorobenzonitrile] | improved; also recorded: enhances | significantly increased; also recorded: enhances | significantly increased | significantly increased | increased; also recorded: enhances | increased; also recorded: enhances | increase in efficacy | greatest potentiation | increased | increased | significantly increased | – |
| Nc1cccc2c1C(=O)N(C1CCC(=O)NC1=O)C2=O (stereo not shown) [pomalidomide, reference compound] | – | – | – | – | not | – | – | – | – | – | – | – |
| CT-011: anti-PD-1 antibody, a humanized antibody | – | – | – | – | – | – | – | – | – | – | – | failed to show response |
